Laboratory results as given in patent publication US4327097A, “Novel penicillins” (Toyama Chemical Co., Ltd., priority 1974, dated 1982).
In brackets after ≈: the same amount, converted by molar mass.

Columns and labels:
Format in all cases: cell-based
Proteus mirabilis = assay: MIC against clinical isolates; settings: Table 6-5, clinical isolate; unit assumed
Escherichia coli = assay: MIC against clinical isolates; settings: Table 6-2, clinical isolate; unit assumed
Proteus rettgeri = assay: MIC against clinical isolates; settings: Table 6-5, clinical isolate; unit assumed
Staphylococcus aureus = assay: MIC against clinical isolates; settings: Table 6-1, clinical isolate; unit assumed
Klebsiella pneumoniae [1] = assay: MIC against clinical isolates; settings: Table 6-4, clinical isolate; unit assumed
Proteus vulgaris = assay: MIC against clinical isolates; settings: Table 6-5, clinical isolate; unit assumed
Pseudomonas aeruginosa = assay: MIC against clinical isolates; settings: unit assumed; for MIC Pseudomonas aeruginosa GN / MIC Pseudomonas aeruginosa GN4 / MIC Pseudomonas aeruginosa GN 82 / MIC Pseudomonas aeruginosa GN 221 / MIC Pseudomonas aeruginosa GN 376 / MIC Pseudomonas aeruginosa GN 1035 / MIC Pseudomonas aeruginosa GN 1091 / MIC Pseudomonas aeruginosa GN 2565: Table 6-3, clinical isolate; for MIC Pseudomonas aeruginosa GN: strain number not given; for MIC Pseudomonas aeruginosa S-1: Table 6-4, clinical isolate
[2] = test system: Pseudomonas aeruginosa I.F.O.; assay: MIC, plate method, standard strains; settings: Table 4, standard strain; unit assumed
Method in brief: (§1)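 Test compound was incorporated into Heart infusion agar at pH 7.4, plates were inoculated with 10^4 cells each (suspension at 10^6 cells/ml), and the minimum inhibitory concentration was recorded.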

Klebsiella pneumoniae [3] = assay: MIC, plate method, standard strains; settings: Table 4, standard strain; unit assumed
Method in brief: as §1

Escherichia coli NIHJ = assay: MIC, plate method, standard strains; settings: Table 4, standard strain; unit assumed
Method in brief: as §1

Proteus vulgaris 3027 = assay: MIC, plate method, standard strains; settings: Table 4, standard strain; unit assumed
Method in brief: as §1

[4] = test system: Staphylococcus aureus 209p; assay: MIC, plate method, standard strains; settings: Table 4, standard strain; unit assumed
Method in brief: as §1

Proteus morganii = assay: MIC against clinical isolates; settings: Table 6-5, clinical isolate; unit assumed

Compound	MIC Proteus mirabilis (Proteus mirabilis)	MIC Escherichia coli GN 3435 (Escherichia coli)	MIC Escherichia coli GN 3452 (Escherichia coli)	MIC Escherichia coli GN 3465 (Escherichia coli)	MIC Escherichia coli K-2 (Escherichia coli)	MIC Escherichia coli K-4 (Escherichia coli)	MIC Proteus rettgeri (Proteus rettgeri)	MIC Staphylococcus aureus F-1 (Staphylococcus aureus)	MIC Staphylococcus aureus MS 8588 (Staphylococcus aureus)	MIC Staphylococcus aureus MS 8596 (Staphylococcus aureus)	MIC Staphylococcus aureus MS 8619 (Staphylococcus aureus)	MIC Staphylococcus aureus MS 8684 (Staphylococcus aureus)	MIC Klebsiella pneumoniae GN 917 (Klebsiella pneumoniae [1])	MIC Klebsiella pneumoniae GN 4081 (Klebsiella pneumoniae [1])	MIC Proteus vulgaris (Proteus vulgaris)	MIC Pseudomonas aeruginosa GN4 (Pseudomonas aeruginosa)	MIC Pseudomonas aeruginosa GN 82 (Pseudomonas aeruginosa)	MIC Pseudomonas aeruginosa GN 221 (Pseudomonas aeruginosa)	MIC Pseudomonas aeruginosa GN 376 (Pseudomonas aeruginosa)	MIC Pseudomonas aeruginosa GN 1035 (Pseudomonas aeruginosa)	also measured
CCN1CCN(C(=O)NC(C(=O)NC2C(=O)N3C(C(=O)O)=C(CSc4nnnn4CC)CSC23)c2ccc(O)cc2)C(=O)C1=O (single isomer, unassigned) [Compound No. 78]	1.56 µg/mL (≈ 2.36 µM)	0.39 µg/mL (≈ 0.591 µM)	0.39 µg/mL (≈ 0.591 µM)	1.56 µg/mL (≈ 2.36 µM)	0.78 µg/mL (≈ 1.18 µM)	0.39 µg/mL (≈ 0.591 µM)	1.56 µg/mL (≈ 2.36 µM)	3.13 µg/mL (≈ 4.74 µM)	3.13 µg/mL (≈ 4.74 µM)	3.13 µg/mL (≈ 4.74 µM)	1.56 µg/mL (≈ 2.36 µM)	1.56 µg/mL (≈ 2.36 µM)	0.39 µg/mL (≈ 0.591 µM)	3.13 µg/mL (≈ 4.74 µM)	0.39 µg/mL (≈ 0.591 µM)	25 µg/mL (≈ 37.9 µM)	12.5 µg/mL (≈ 18.9 µM)	6.25 µg/mL (≈ 9.47 µM)	12.5 µg/mL (≈ 18.9 µM)	25 µg/mL (≈ 37.9 µM)	MIC Pseudomonas aeruginosa GN (Pseudomonas aeruginosa): 12.5 µg/mL (≈ 18.9 µM); MIC Pseudomonas aeruginosa GN 1091 (Pseudomonas aeruginosa): 25 µg/mL (≈ 37.9 µM); MIC Pseudomonas aeruginosa GN 2565 (Pseudomonas aeruginosa): 12.5 µg/mL (≈ 18.9 µM); MIC Pseudomonas aeruginosa S-1 (Pseudomonas aeruginosa): 25 µg/mL (≈ 37.9 µM); MIC Pseudomonas aeruginosa I.F.O. [2]: 12.5 µg/mL (≈ 18.9 µM); MIC Klebsiella pneumoniae (Klebsiella pneumoniae [3]): 0.2 µg/mL (≈ 0.303 µM); MIC Escherichia coli NIHJ (Escherichia coli NIHJ): < 0.1 µg/mL; MIC Proteus vulgaris 3027 (Proteus vulgaris 3027): 0.79 µg/mL (≈ 1.2 µM); MIC Staphylococcus aureus 209p [4]: 3.13 µg/mL (≈ 4.74 µM); MIC Proteus morganii (Proteus morganii): 1.56 µg/mL (≈ 2.36 µM)
Cn1nnnc1SCC1=C(C(=O)O)N2C(=O)C(NC(=O)C(NC(=O)N3CCN(CCO)C(=O)C3=O)c3ccccc3)C2SC1 (single isomer, unassigned) [Compound No. 82]	3.13 µg/mL (≈ 4.85 µM)	1.56 µg/mL (≈ 2.42 µM)	1.56 µg/mL (≈ 2.42 µM)	6.25 µg/mL (≈ 9.68 µM)	6.25 µg/mL (≈ 9.68 µM)	1.56 µg/mL (≈ 2.42 µM)	6.25 µg/mL (≈ 9.68 µM)	3.13 µg/mL (≈ 4.85 µM)	3.13 µg/mL (≈ 4.85 µM)	3.13 µg/mL (≈ 4.85 µM)	1.56 µg/mL (≈ 2.42 µM)	1.56 µg/mL (≈ 2.42 µM)	1.56 µg/mL (≈ 2.42 µM)	6.25 µg/mL (≈ 9.68 µM)	0.78 µg/mL (≈ 1.21 µM)	50 µg/mL (≈ 77.4 µM)	50 µg/mL (≈ 77.4 µM)	25 µg/mL (≈ 38.7 µM)	25 µg/mL (≈ 38.7 µM)	50 µg/mL (≈ 77.4 µM)	MIC Pseudomonas aeruginosa GN (Pseudomonas aeruginosa): 50 µg/mL (≈ 77.4 µM); MIC Pseudomonas aeruginosa GN 1091 (Pseudomonas aeruginosa): 50 µg/mL (≈ 77.4 µM); MIC Pseudomonas aeruginosa GN 2565 (Pseudomonas aeruginosa): 50 µg/mL (≈ 77.4 µM); MIC Pseudomonas aeruginosa S-1 (Pseudomonas aeruginosa): 100 µg/mL (≈ 155 µM); MIC Pseudomonas aeruginosa I.F.O. [2]: 25 µg/mL (≈ 38.7 µM); MIC Klebsiella pneumoniae (Klebsiella pneumoniae [3]): 0.79 µg/mL (≈ 1.22 µM); MIC Escherichia coli NIHJ (Escherichia coli NIHJ): < 0.1 µg/mL; MIC Proteus vulgaris 3027 (Proteus vulgaris 3027): 0.79 µg/mL (≈ 1.22 µM); MIC Staphylococcus aureus 209p [4]: 1.57 µg/mL (≈ 2.43 µM); MIC Proteus morganii (Proteus morganii): 1.56 µg/mL (≈ 2.42 µM)
CCN1CCN(C(=O)NC(C(=O)NC2C(=O)N3C(C(=O)O)=C(CSc4nncs4)CSC23)c2ccc(O)cc2)C(=O)C1=O (single isomer, unassigned) [Compound No. 79]	1.56 µg/mL (≈ 2.41 µM)	0.39 µg/mL (≈ 0.602 µM)	0.39 µg/mL (≈ 0.602 µM)	3.13 µg/mL (≈ 4.83 µM)	1.56 µg/mL (≈ 2.41 µM)	0.78 µg/mL (≈ 1.2 µM)	3.13 µg/mL (≈ 4.83 µM)	1.56 µg/mL (≈ 2.41 µM)	3.13 µg/mL (≈ 4.83 µM)	3.13 µg/mL (≈ 4.83 µM)	1.56 µg/mL (≈ 2.41 µM)	1.56 µg/mL (≈ 2.41 µM)	0.78 µg/mL (≈ 1.2 µM)	12.5 µg/mL (≈ 19.3 µM)	0.39 µg/mL (≈ 0.602 µM)	12.5 µg/mL (≈ 19.3 µM)	12.5 µg/mL (≈ 19.3 µM)	6.25 µg/mL (≈ 9.65 µM)	6.25 µg/mL (≈ 9.65 µM)	25 µg/mL (≈ 38.6 µM)	MIC Pseudomonas aeruginosa GN 1091 (Pseudomonas aeruginosa): 12.5 µg/mL (≈ 19.3 µM); MIC Pseudomonas aeruginosa GN 2565 (Pseudomonas aeruginosa): 25 µg/mL (≈ 38.6 µM); MIC Pseudomonas aeruginosa S-1 (Pseudomonas aeruginosa): 25 µg/mL (≈ 38.6 µM); MIC Pseudomonas aeruginosa I.F.O. [2]: 3.13 µg/mL (≈ 4.83 µM); MIC Klebsiella pneumoniae (Klebsiella pneumoniae [3]): 0.79 µg/mL (≈ 1.22 µM); MIC Escherichia coli NIHJ (Escherichia coli NIHJ): < 0.1 µg/mL; MIC Proteus vulgaris 3027 (Proteus vulgaris 3027): 3.13 µg/mL (≈ 4.83 µM); MIC Staphylococcus aureus 209p [4]: 1.57 µg/mL (≈ 2.42 µM); MIC Proteus morganii (Proteus morganii): 1.56 µg/mL (≈ 2.41 µM)
CCN1CCN(C(=O)NC(C(=O)NC2C(=O)N3C(C(=O)O)=C(CSc4nnnn4CC)CSC23)c2ccccc2)C(=O)C1=O (single isomer, unassigned) [Compound No. 77]	1.56 µg/mL (≈ 2.42 µM)	1.56 µg/mL (≈ 2.42 µM)	1.56 µg/mL (≈ 2.42 µM)	6.25 µg/mL (≈ 9.71 µM)	3.13 µg/mL (≈ 4.86 µM)	1.56 µg/mL (≈ 2.42 µM)	1.56 µg/mL (≈ 2.42 µM)	1.56 µg/mL (≈ 2.42 µM)	1.56 µg/mL (≈ 2.42 µM)	1.56 µg/mL (≈ 2.42 µM)	1.56 µg/mL (≈ 2.42 µM)	1.56 µg/mL (≈ 2.42 µM)	1.56 µg/mL (≈ 2.42 µM)	3.13 µg/mL (≈ 4.86 µM)	0.78 µg/mL (≈ 1.21 µM)	25 µg/mL (≈ 38.8 µM)	25 µg/mL (≈ 38.8 µM)	12.5 µg/mL (≈ 19.4 µM)	25 µg/mL (≈ 38.8 µM)	50 µg/mL (≈ 77.7 µM)	MIC Pseudomonas aeruginosa GN (Pseudomonas aeruginosa): 25 µg/mL (≈ 38.8 µM); MIC Pseudomonas aeruginosa GN 1091 (Pseudomonas aeruginosa): 25 µg/mL (≈ 38.8 µM); MIC Pseudomonas aeruginosa GN 2565 (Pseudomonas aeruginosa): 50 µg/mL (≈ 77.7 µM); MIC Pseudomonas aeruginosa S-1 (Pseudomonas aeruginosa): 50 µg/mL (≈ 77.7 µM); MIC Pseudomonas aeruginosa I.F.O. [2]: 25 µg/mL (≈ 38.8 µM); MIC Klebsiella pneumoniae (Klebsiella pneumoniae [3]): 0.4 µg/mL (≈ 0.621 µM); MIC Escherichia coli NIHJ (Escherichia coli NIHJ): < 0.1 µg/mL; MIC Proteus vulgaris 3027 (Proteus vulgaris 3027): 1.57 µg/mL (≈ 2.44 µM); MIC Staphylococcus aureus 209p [4]: 1.57 µg/mL (≈ 2.44 µM); MIC Proteus morganii (Proteus morganii): 1.56 µg/mL (≈ 2.42 µM)
